The target in this assay is T1, delta-5-desaturase (Rattus norvegicus, UniProt Q920R3).
T1 construct: the microsomal fraction of a rat river (10 μl), which had been diluted to 3 mg/ml; from tissue; host or cells: rat liver microsomal fraction
T1 sequence (Q920R3 whole entry): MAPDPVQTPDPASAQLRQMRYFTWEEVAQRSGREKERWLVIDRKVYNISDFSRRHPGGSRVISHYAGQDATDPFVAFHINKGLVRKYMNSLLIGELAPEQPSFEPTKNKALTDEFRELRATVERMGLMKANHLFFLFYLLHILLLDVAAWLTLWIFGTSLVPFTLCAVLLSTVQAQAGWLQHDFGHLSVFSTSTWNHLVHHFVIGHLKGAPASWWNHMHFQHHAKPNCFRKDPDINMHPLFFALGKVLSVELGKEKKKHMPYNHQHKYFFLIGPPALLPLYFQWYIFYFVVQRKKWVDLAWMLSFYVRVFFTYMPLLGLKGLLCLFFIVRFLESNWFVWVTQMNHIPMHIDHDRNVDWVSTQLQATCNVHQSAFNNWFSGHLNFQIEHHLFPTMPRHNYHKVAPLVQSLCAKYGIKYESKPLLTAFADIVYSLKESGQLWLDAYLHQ
The assay is described as follows: Inhibitory activity on delta-5-desaturase (rat liver microsomal fraction, 14C-eicosatrienoic acid, TLC). The assay is classed as biochemical. The conditions noted are these: test compound at 10 μM, room temperature, 120 minutes. Put shortly:
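Rat liver microsomes (3 mg/ml before addition) incubated with test compound at 10 μM, NADH, ATP, CoA and 14C-eicosatrienoic acid in phosphate buffer pH 7.4 with BSA and glutathione, 120 min at room temperature. Lipids saponified, extracted, separated by reverse-phase TLC and imaged; % inhibition reported.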
(In general: Microsomes from liver hold many membrane-bound enzymes, among them those of drug oxidation.)
`O=c1c2cc[nH]c2nc(Oc2ccc(F)cc2)n1-c1ccc(OCC(F)(F)F)cc1` [Example 246, 2-(4-Fluorophenoxy)-3-[4-(2,2,2-trifluoroethoxy)phenyl]-3,7-dihydro-4H-pyrrolo[2,3-d]pyrimidin-4-one]: the inhibition (commonly the drop in the measured response relative to a control, in per cent) at 10 µM was 101%.

For `CCCSc1nc2c(c(=O)n1-c1ccc(OCC(F)(F)F)cc1)CC(=O)N2` [Example 286, 2-(Propylsulfanyl)-3-[4-(2,2,2-trifluoroethoxy)phenyl]-5,7-dihydro-3H-pyrrolo[2,3-d]pyrimidine-4,6-dione], the inhibition at 10 µM amounted to 102%.

Turning to `CCSc1nc2c(c(=O)n1-c1ccc(OCC(F)(F)F)cc1)CC(=O)N2` [Example 265, 2-(Ethylsulfanyl)-3-[4-(2,2,2-trifluoroethoxy)phenyl]-5,7-dihydro-3H-pyrrolo[2,3-d]pyrimidine-4,6-dione], the inhibition at 10 µM was found to be 98%.

Turning to `O=C1Cc2c(nc(OCC(F)(F)F)n(-c3ccc(OCC(F)(F)F)c(F)c3)c2=O)N1` [Example 309, 3-[3-Fluoro-4-(2,2,2-trifluoroethoxy)phenyl]-2-(2,2,2-trifluoroethoxy)-5,7-dihydro-3H-pyrrolo[2,3-d]pyrimidine-4,6-dione], the inhibition at 10 µM stood at 98%.

In the case of `NS(=O)(=O)CCCSc1nc2cc[nH]c2c(=O)n1-c1ccc(OCC(F)(F)F)cc1` [Example 120, 3-({4-Oxo-3-[4-(2,2,2-trifluoroethoxy)phenyl]-4,5-dihydro-3h-pyrrolo[3,2-d]pyrimidin-2-yl}sulfanyl)propane-1-sulfonamide], the inhibition at 10 µM stood at 101%.

As for `O=c1c2[nH]ccc2nc(SCCCS(=O)(=O)N2CCOCC2)n1-c1ccc(OCC(F)(F)F)cc1` [Example 106, 2-{[3-(Morpholin-4-ylsulfonyl)propyl]sulfanyl}-3-[4-(2,2,2-trifluoroethoxy)phenyl]-3,5-dihydro-4H-pyrrolo[3,2-d]pyrimidin-4-one], the inhibition at 10 µM came out at 102%.

With `O=C1Cc2c(nc(SCC(F)(F)F)n(-c3ccc(OCC(F)(F)C(F)(F)F)cc3)c2=O)N1` [Example 347, 3-[4-(2,2,3,3,3-Pentafluoropropoxy)phenyl]-2-[(2,2,2-trifluoroethyl)sulfanyl]-5,7-dihydro-3H-pyrrolo[2,3-d]pyrimidine-4,6-dione], the inhibition at 10 µM is 100%.

For the compound `N#CCCCCSc1nc2cc[nH]c2c(=O)n1-c1ccc(OCC(F)(F)F)cc1` [Example 87, 5-({4-Oxo-3-[4-(2,2,2-trifluoroethoxy)phenyl]-4,5-dihydro-3H-pyrrolo[3,2-d]pyrimidin-2-yl}sulfanyl)pentanenitrile], the inhibition at 10 µM amounted to 99%.

For `O=c1c2[nH]ccc2nc(SCCCCO)n1-c1ccc(OCC(F)(F)F)cc1` [Example 119, 2-[(4-Hydroxybutyl)sulfanyl]-3-[4-(2,2,2-trifluoroethoxy)phenyl]-3,5-dihydro-4H-pyrrolo[3,2-d]pyrimidin-4-one], the inhibition at 10 µM worked out at 102%.

In the case of `CCSc1nc2cc[nH]c2c(=O)n1-c1ccc(OCC2CC2)cc1` [Example 153, 3-[4-(Cyclopropylmethoxy)phenyl]-2-(ethylsulfanyl)-3,5-dihydro-4H-pyrrolo[3,2-d]pyrimidin-4-one], the inhibition at 10 µM was 98%.

In the case of `O=c1c2cc[nH]c2nc(OCC(F)(F)C(F)(F)F)n1-c1ccc(OCC(F)(F)F)cc1` [Example 239, 2-(2,2,3,3,3-Pentafluoropropoxy)-3-[4-(2,2,2-trifluoroethoxy)phenyl]-3,7-dihydro-4H-pyrrolo[2,3-d]pyrimidin-4-one], the inhibition at 10 µM is 101%.

Consider `N#CCCNC(=O)CCCSc1nc2cc[nH]c2c(=O)n1-c1ccc(OCC(F)(F)F)cc1` [Example 67], for which the inhibition at 10 µM came out at 96%.

On to `O=C(CCCSc1nc2cc[nH]c2c(=O)n1-c1ccc(OCC(F)(F)F)cc1)N1CCS(=O)(=O)CC1` [Example 135, 2-{[4-(1,1-Dioxidothiomorpholin-4-yl)-4-oxobutyl]sulfanyl}-[4-(2,2,2-trifluoroethoxy)phenyl]-3,5-dihydro-4H-pyrrolo[3,2-d]pyrimidin-4-one], for which the inhibition at 10 µM came out at 100%.

For `N#CCCCSc1nc2cc[nH]c2c(=O)n1-c1ccc(OCC(F)(F)F)cc1` [Example 86, 4-({4-Oxo-3-[4-(2,2,2-trifluoroethoxy)phenyl]-4,5-dihydro-3H-pyrrolo[3,2-d]pyrimidin-2-yl}sulfanyl)butanenitrile], the inhibition at 10 µM is 99%.

`O=C1Cc2c(nc(SCC3CC3)n(-c3ccc(OCC(F)(F)F)c(F)c3)c2=O)N1` [Example 322, 2-[(Cyclopropylmethyl)sulfanyl]-3-[3-fluoro-4-(2,2,2-trifluoroethoxy)phenyl]-5,7-dihydro-3H-pyrrolo[2,3-d]pyrimidine-4,6-dione]: the inhibition at 10 µM is 101%.

As for `CCSc1nc2[nH]ccc2c(=O)n1-c1ccc(OCC(F)(F)F)cc1` [Example 194, 2-(Ethylsulfanyl)-3-[4-(2,2,2-trifluoroethoxy)phenyl]-3,7-dihydro-4H-pyrrolo[2,3-d]pyrimidin-4-one], the inhibition at 10 µM was found to be 103%.

On to `CSc1nc2c(c(=O)n1-c1ccc(OCC(F)(F)F)cc1)CC(=O)N2` [Example 267, 2-(Methylsulfanyl)-3-[4-(2,2,2-trifluoroethoxy)phenyl]-5,7-dihydro-3H-pyrrolo[2,3-d]pyrimidine-4,6-dione], for which the inhibition at 10 µM amounted to 100%.

Consider `CCOCCCSc1nc2[nH]ccc2c(=O)n1-c1ccc(OCC(F)(F)F)cc1` [Example 213, 2-[(3-Ethoxypropyl)sulfanyl]-3-[4-(2,2,2-trifluoroethoxy)phenyl]-3,7-dihydro-4H-pyrrolo[2,3-d]pyrimidin-4-one], for which the inhibition at 10 µM worked out at 100%.

As to `CC1(O)CCN(C(=O)CCCSc2nc3cc[nH]c3c(=O)n2-c2ccc(OCC(F)(F)F)cc2)CC1` [Example 134, 2-{[4-(4-Hydroxy-4-methylpiperidin-1-yl)-4-oxobutyl]sulfanyl}-3-[4-(2,2,2-trifluoroethoxy)phenyl]-3,5-dihydro-4H-pyrrolo[3,2-d]pyrimidin-4-one], the inhibition at 10 µM was found to be 100%.

Regarding `CC(C)CSc1nc2c(c(=O)n1-c1ccc(OCC(F)(F)F)cc1)CC(=O)N2` [Example 313, 2-[(2-Methylpropyl)sulfanyl]-3-[4-(2,2,2-trifluoroethoxy)phenyl]-5,7-dihydro-3H-pyrrolo[2,3-d]pyrimidine-4,6-dione], the inhibition at 10 µM came out at 102%.

As to `O=C(CCCSc1nc2cc[nH]c2c(=O)n1-c1ccc(OCC(F)(F)F)cc1)N1CCC(O)CC1` [Example 98, 2-{[4-(4-Hydroxypiperidin-1-yl)-4-oxobutyl]sulfanyl}-3-[4-(2,2,2-trifluoroethoxy)phenyl]-3,5-dihydro-4H-pyrrolo[3,2-d]pyrimidin-4-one], the inhibition at 10 µM was found to be 100%.

`CCOc1ccc(-n2c(SCCCS(=O)(=O)NCCC#N)nc3cc[nH]c3c2=O)cc1` [Example 62, N-(2-cyanoethyl)-3-{[3-(4-ethoxyphenyl)-4-oxo-4,5-dihydro-3H-pyrrolo[3,2-d]pyrimidin-2-yl]sulfanyl}propane-1-sulfonamide]: the inhibition at 10 µM came to 102%.

For the compound `O=c1c2[nH]ccc2nc(SCCCS(=O)(=O)NCC(F)(F)F)n1-c1ccc(OCC(F)(F)F)cc1` [Example 107, 3-({4-Oxo-3-[4-(2,2,2-trifluoroethoxy)phenyl]-4,5-dihydro-3H-pyrrolo[3,2-d]pyrimidin-2-yl}sulfanyl)-N-(2,2,2-trifluoroethyl)propane-1-sulfonamide], the inhibition at 10 µM stood at 100%.

Turning to `O=c1c2[nH]ccc2nc(SC(F)F)n1-c1ccc(OCC(F)(F)F)cc1` [Example 129, 2-[(Difluoromethyl)sulfanyl]-3-[4-(2,2,2-trifluoroethoxy)phenyl]-3,5-dihydro-4H-pyrrolo[3,2-d]pyrimidin-4-one], the inhibition at 10 µM was found to be 101%.

Take `O=c1c2cc[nH]c2nc(SCC(F)(F)F)n1-c1ccc(OCC(F)(F)F)cc1` [Example 225, 3-[4-(2,2,2-Trifluoroethoxy)phenyl]-2-[(2,2,2-trifluoroethyl)sulfanyl]-3,7-dihydro-4H-pyrrolo[2,3-d]pyrimidin-4-one]: the inhibition at 10 µM came out at 100%.

In the case of `O=C1Cc2c(nc(SCC(F)(F)F)n(-c3ccc(OCC(F)(F)F)cc3)c2=O)N1` [Example 298, 3-[4-(2,2,2-Trifluoroethoxy)phenyl]-2-[(2,2,2-trifluoroethyl)sulfanyl]-5,7-dihydro-3H-pyrrolo[2,3-d]pyrimidine-4,6-dione], the inhibition at 10 µM was 101%.

Turning to `O=c1c2[nH]ccc2nc(SCCOC2CCOCC2)n1-c1ccc(OCC2CC2)cc1` [Example 147, 3-[4-(Cyclopropylmethoxy)phenyl]-2-{[2-(tetrahydro-2H-pyran-4-yloxy)ethyl]sulfanyl}-3,5-dihydro-4H-pyrrolo[3,2-d]pyrimidin-4-one], the inhibition at 10 µM came out at 98%.

As to `N#CCCNC(=O)CSc1nc2c(c(=O)n1-c1ccc(OCC(F)(F)F)cc1)CC(=O)N2` [Example 328, N-(2-cyanoethyl)-2-({4,6-dioxo-3-[4-(2,2,2-trifluoroethoxy)phenyl]-4,5,6,7-tetrahydro-3H-pyrrolo[2,3-d]pyrimidin-2-yl}sulfanyl)acetamide], the inhibition at 10 µM worked out at 97%.

On to `O=c1c2[nH]ccc2nc(SCCO)n1-c1ccc(OCC(F)(F)F)cc1` [Example 127, 2-[(2-Hydroxyethyl)sulfanyl]-3-[4-(2,2,2-trifluoroethoxy)phenyl]-3,5-dihydro-4H-pyrrolo[3,2-d]pyrimidin-4-one], for which the inhibition at 10 µM is 102%.

`CC(C)Oc1nc2c(c(=O)n1-c1ccc(OCC(F)(F)C(F)(F)F)cc1)CC(=O)N2` [Example 310, 2-(1-Methylethoxy)-3-[4-(2,2,3,3,3-pentafluoropropoxy)phenyl]-5,7-dihydro-3H-pyrrolo[2,3-d]pyrimidine-4,6-dione]: the inhibition at 10 µM is 99%.

As to `O=C1Cc2c(nc(SCC3CC3)n(-c3ccc(OCC(F)(F)C(F)(F)F)cc3)c2=O)N1` [Example 323, 2-[(Cyclopropylmethyl)sulfanyl]-3-[4-(2,2,3,3,3-pentafluoropropoxy)phenyl]-5,7-dihydro-3H-pyrrolo[2,3-d]pyrimidine-4,6-dione], the inhibition at 10 µM amounted to 102%.
